Data taken from patent US20170307610A1, “COMPOUNDS THAT BIND DYSTROGLYCAN AND USES THEREOF” (OREGON HEALTH & SCIENCE UNIVERSITY, priority 2014, published 2017).
Peptide text beside a SMILES is read from it. * marks the point of attachment. Cbz = O=C(OCc1ccccc1)*

Assays:
Assay type in all cases: cell-based, mouse
E3D1 MECs [1] = experiment: Steady-state laminin internalization, flow cytometry; conditions: 18 hrs; for MFI of steady-state laminin endocytosis in presence of MMP inhibitor: GM6001 50 μM (vehicle 20.2±1.82, n=4), BB2416 5 μM (vehicle 20.85, n=2); for effect of MMP inhibitor on steady-state laminin endocytosis: GM6001 50 μM, BB2416 5 μM
Experimental: Endocytic internalization of laminin was confirmed by multiple methods. Laminin was labeled with the pH-sensitive fluorescent label CypHer-5 (CyPher-Ln) to exclusively image internalized laminin in attached, living cells. The fluorophore CypHer-5 is non fluorescent at pH 7.4 and maximally fluorescent at pH 5.5, permitting fluorescence detection of laminin within intracellular acidic vesicles (pH 4.8-6.0). Following overnight incubation of MECs with CypHer-Ln, live cell imaging detected bright fluorescent vesicles moving rapidly within the cytoplasm (FIG. 3A). Intracellular laminin within the cytoplasm was also independently observed via removal of surface bound laminin followed by confocal imaging. MECs were exposed to 10 μg/ml Rhod-Ln for 18 hrs, trypsinized, washed with PBS/EDTA to remove surface-bound laminin, allowed to re-attach, and stained with the membrane marker FITC-concanavalin A (conA). […] This method of cell treatment permitted a quantitative, flow cytometry-based assay of laminin internalization. In this assay, cells incubated with Rhod-Ln were trypsinized, washed (as in FIG. 3B), and the remaining internal Rhod-Ln fluorescence quantified by flow cytometry. Using this assay, laminin internalization was confirmed in diverse cell types including in primary mammary epithelial cultures, mammary epithelial cell lines (E3D1, MEpG), […] fibroblasts (NIH 3T3 cells), primary astrocytes, and human cancer cell lines (breast and glioma).
(§1) To explore the dynamics of laminin internalization, steady-state time course experiments (measuring internalization in the continuous presence of labeled laminin) and pulsed time course experiments were performed. In pulsed time course experiments, the cells were exposed to exogenous Rhod-Ln at 4° C. to prevent internalization, excess unbound Rhod-Ln was washed away, and then cells were returned to 37° C. to allow synchronized internalization and trafficking to proceed. […] Following pulsed and synchronized laminin exposure, Rhod-Ln was again observed to internalize within 1 hour, but reached a maximum at 8 hours, after which the levels of internal laminin declined (FIG. 4A). After 24 hours, internal Rhod-Ln levels declined to ˜37% of the maxima, indicating degradation (MFI: 315±3.5 to 119±11.5). To determine if laminin was degraded using classical degradation pathways, pulsed time course experiments in the presence of leupeptin (lysosome inhibitor) or […] (proteasome inhibitor) were performed.
Laminin internalization could be mediated by either receptor-dependent or receptor independent mechanisms (e.g. pinocytosis). Steady-state laminin internalization was measured using flow cytometry in the presence of potential inhibitors and compared to internalization of 500S FITC-dextran, a molecule of similar molecular size to laminin known to be endocytosed by receptor-independent mechanisms. The specific inhibitor of dynamin, dynasore (Macia E et al, Dev Cell, 839-850 (2006); incorporated by reference herein), inhibited internalization of laminin by >75% (FIG. 6A). Under hypertonic sucrose, a condition known to inhibit receptor-mediated endocytosis (Heuser J E and Anderson R G, J Cell Biol 108, 389-400 (1989); incorporated by reference herein) laminin internalization was reduced by 65% (FIG. 6A). Addition of heparin, a molecule known to bind the laminin LG4-5 domain (Harrison D et al, J Biol Chem 282, 11573-11581 (2007); incorporated by reference herein), decreased laminin internalization by 69% relative to controls (FIG. 6A). […] Specifically, under steady state, laminin internalization was nearly linear throughout the 24 hour time course, whereas dextran internalization plateaued after 16 hrs.
Flow Cytometry—Cells were plated in 12 well plates at 200,000 cells/well. The following day, media was changed to serum-free media with or without 10 μg/ml rhodamine laminin or 40 μg/ml FITC-dextran (500S-Sigma-Aldrich Corp., St. Louis, Mo., USA). […]

E3D1 MECs [2] = experiment: Pulsed time course of Rhod-Ln internalization, flow cytometry; conditions: pulsed, 24 hrs post laminin labeling, n=4; for MFI of internal Rhod-Ln in presence of inhibitor: vehicle 105.5±3
Experimental: as §1
Laminin labeling—Laminin-111 (1 mg) (Sigma-Aldrich Corp., St. Louis, Mo., USA) was dialyzed twice overnight against 500 ml of PBS with 10 μM CaCl2. The dialyzed laminin was then reacted with 10 μg NHS-rhodamine, or a 50 fold molar excess of NHS409 CypHer5 (GE) for 2 hr on ice, followed by dialysis twice overnight against 500 ml of PBS with 10 μM CaCl2.
Flow Cytometry—Cells were plated in 12 well plates at 200,000 cells/well. The following day, media was changed to serum-free media with or without 10 μg/ml rhodamine laminin or 40 μg/ml FITC-dextran (500S-Sigma-Aldrich Corp., St. Louis, Mo., USA). Unless otherwise indicated, cells were incubated 18-24 hrs, washed once with PBS, and cells trypsinized. Cells were washed in 5 ml cold PBS/1 mM EDTA, pelleted, and resuspended in 1 ml PBS/1 mM EDTA. Using a BD FACScan flow cytometer (BD Biosciences, San Jose, Calif., USA), 10,000 cells/well were counted, background fluorescence from the cell counts with no added laminin subtracted and the mean fluorescence intensity values reported. Graphed data are compiled from duplicate wells from each experiment with a minimum of three separate experiments, unless indicated otherwise.

E3D1 MECs [3] = experiment: FITC-dextran (500S) internalization, flow cytometry; conditions: steady state, 24 hour time course
Experimental: Laminin internalization could be mediated by either receptor-dependent or receptor independent mechanisms (e.g. pinocytosis). Steady-state laminin internalization was measured using flow cytometry in the presence of potential inhibitors and compared to internalization of 500S FITC-dextran, a molecule of similar molecular size to laminin known to be endocytosed by receptor-independent mechanisms. The specific inhibitor of dynamin, dynasore (Macia E et al, Dev Cell, 839-850 (2006); incorporated by reference herein), inhibited internalization of laminin by >75% (FIG. 6A). Under hypertonic sucrose, a condition known to inhibit receptor-mediated endocytosis (Heuser J E and Anderson R G, J Cell Biol 108, 389-400 (1989); incorporated by reference herein) laminin internalization was reduced by 65% (FIG. 6A). Addition of heparin, a molecule known to bind the laminin LG4-5 domain (Harrison D et al, J Biol Chem 282, 11573-11581 (2007); incorporated by reference herein), decreased laminin internalization by 69% relative to controls (FIG. 6A). […]
Flow Cytometry—Cells were plated in 12 well plates at 200,000 cells/well. […] Using a BD FACScan flow cytometer (BD Biosciences, San Jose, Calif., USA), 10,000 cells/well were counted, background fluorescence from the cell counts with no added laminin subtracted and the mean fluorescence intensity values reported. […]

[4] = Mus musculus, steady-state, 10 μg/ml Rhod-Ln, 40 μM dynasore, 320 mM sucrose, 100 μg/ml heparin

Compound: CNC(=O)[C@H](Cc1c[nH]c2ccccc12)NC(=O)[C@@H](CC(=O)NO)CC(C)C [GM6001]
- MFI of steady-state laminin endocytosis in presence of MMP inhibitor (E3D1 MECs [1]): 18.62±1
- effect of MMP inhibitor on steady-state laminin endocytosis (E3D1 MECs [1]): no significant effect

Compound: OC[C@H]1O[C@@](CO)(O[C@H]2O[C@H](CO)[C@@H](O)[C@H](O)[C@H]2O)[C@@H](O)[C@@H]1O [sucrose]
- inhibition at 320000 µM (E3D1 MECs [1]; [4]): 65%

Compound: CC(C)C[C@@H](C=O)NC(=O)[C@H](CC(C)C)NC(=O)[C@H](CC(C)C)NC(=O)OCc1ccccc1 [MG-231] (Cbz-Leu-Leu-Leu-aldehyde)
- increase in internal Rhod-Ln compared to vehicle controls (E3D1 MECs [2]): 59%
- MFI of internal Rhod-Ln in presence of inhibitor (E3D1 MECs [2]): 167.5±7

Compound: CNC(=O)[C@@H](NC(=O)[C@H](CC(C)C)[C@H](O)C(=O)NO)C(C)(C)C [BB2416]
- MFI of steady-state laminin endocytosis in presence of MMP inhibitor (E3D1 MECs [1]): 20.46
- effect of MMP inhibitor on steady-state laminin endocytosis (E3D1 MECs [1]): no significant effect

Compound: CC(=O)N[C@@H](CC(C)C)C(=O)N[C@@H](CC(C)C)C(=O)N[C@H](C=O)CCCNC(=N)N [leupeptin]
- increase in internal Rhod-Ln compared to vehicle controls (E3D1 MECs [2]): 153%
- MFI of internal Rhod-Ln in presence of inhibitor (E3D1 MECs [2]): 266±11.2

Compound: heparin
- inhibition of laminin internalization (E3D1 MECs [1]; steady-state, 10 μg/ml Rhod-Ln, 40 μM dynasore, 320 mM sucrose, 100 μg/ml heparin): 69%

Compound: FITC-dextran
- time to plateau of dextran internalization (E3D1 MECs [3]): > 16 h

Compound: O=C(N/N=C/c1ccc(O)c(O)c1)c1cc2ccccc2cc1O [dynasore]
- inhibition at 40 µM (E3D1 MECs [1]; [4]): > 75%
